US8124579B2, “Heat shock protein 20-related polypeptides and uses therefor” (Arizona Board of Regents, priority 2003, dated 2012)

Test system: Swiss 3T3 cells
Test: Actin stress fibers and cell morphology, phalloidin staining
Format: cell-based
Conditions: peptides 25 μM, forskolin and lysophosphatidic acid 10 μM, serum 10%, 30 minutes, phalloidin stain
Method: Unless otherwise stated, all reagents were purchased from Sigma, St. Louis, Mo. Swiss Albino 3T3 fibroblasts (ATCC, Manassas, Va.) were cultured in DMEM supplemented with 10% BCS, 4 mM L-glutamine and 50 μg/ml penicillin-streptomycin and maintained at 37° C., 5% CO2. Cells were seeded and cultured overnight. Culture media was replaced with DMEM containing 0.5% BCS 1 hour prior to experimentation. Cells were incubated with the peptide analogues or reagent (LPA or forskolin) diluted in DMEM containing 0.5% BCS, 30 minutes at 37° C. Cells were then fixed in 4% paraformaldehyde, permeabilized in 0.25% Triton X-100, and blocked with 1% BSA solution for 1 hour. To determine α-actin cytoskeletal distribution, treated cells were incubated with Alexa 568 phalloidin (Molecular Probes, Eugene, Oreg.) in 1% BSA, 30 min. To determine focal adhesion protein localization, treated cells were incubated with primary monoclonal antibodies for α-actinin (1:100, Upstate, Charlottesville, Va.), vinculin (1:100, Sigma) or paxillin (1:100, BD Bioscience-Transduction Labs, San Jose, Calif.) in 1% BSA solution for 2 hours, rinsed in PBS and incubated 60 minutes with Cy3-goat IgG secondary antibody (Jackson ImmunoResearch, West Grove, Pa.). Slides were mounted and analyzed by confocal microscopy (Leica TCS SP2, Bannockburn, Ill.). […]

Substance: lysophosphatidic acid
- stress fibers and cell morphology: displayed robust stress fibers
